Read-outs that look alike come from different tables or passages of the source. One block for each compound: values may come before it.
Tests used:
[1] = target: Tyrosyl-DNA phosphodiesterase 1 (TDP1) (Homo sapiens, UniProt Q9NUW8); assay: TDP1 inhibition; type: biochemical; conditions: scores correspond to IC50 ranges
Source text: Tyrosyl-DNA phosphodiesterase 1 (TDP1) is a DNA repair enzyme that repairs cytotoxic DNA damage induced by Top1 inhibitors.

[2] = system: all human cancer cell lines successfully tested; assay: NCI-60 cell line assay, mean-graph midpoint; type: cell-based; conditions: for GI50: read-out: MGM GI50; for MGM (mean graph midpoint for growth inhibition): all human cancer cell lines tested, 10^−8 to 10^−4 molar
Experimental: Biological Results. The indenoisoquinoline analogues were tested for antiproliferative activity in the National Cancer Institute's Developmental Therapeutics Assay against cell lines derived from approximately 60 different human tumors. […] The cytotoxicities of the compounds to cultured cancer cells were measured in the National Cancer Institute's 60 cell line assay (a.k.a. NCI-60).

[3] = system: MCF7 (Breast); assay: NCI Developmental Therapeutics antiproliferative assay, MCF7; type: cell-based, human
Experimental: (§1) Biological Results. The indenoisoquinoline analogues were tested for antiproliferative activity in the National Cancer Institute's Developmental Therapeutics Assay against cell lines derived from approximately 60 different human tumors. […] Results are reported in Table 2 as GI50 values for selected cell lines, and overall antiproliferative potency is quantified as a mean-graph midpoint (MGM).

[4] = system: DU-145 (Prostate); assay: NCI Developmental Therapeutics antiproliferative assay, DU-145; type: cell-based, human
Experimental: (§2) Biological Results. The indenoisoquinoline analogues were tested for antiproliferative activity in the National Cancer Institute's Developmental Therapeutics Assay against cell lines derived from approximately 60 different human tumors.

[5] = system: HOP-62 (Lung); assay: NCI Developmental Therapeutics antiproliferative assay, HOP-62; type: cell-based, human
Experimental: as §2

[6] = system: SN12C (Renal); assay: NCI Developmental Therapeutics antiproliferative assay, SN12C; type: cell-based, human
Experimental: as §1

[7] = system: SF-539 (CNS); assay: NCI Developmental Therapeutics antiproliferative assay, SF-539; type: cell-based, human
Experimental: as §1

[8] = system: OVCAR-3 (Ovarian); assay: NCI Developmental Therapeutics antiproliferative assay, OVCAR-3; type: cell-based, human
Experimental: as §1

[9] = target: T1, Human recombinant Top1 (Homo sapiens, UniProt P11387); assay: Top1-mediated DNA cleavage assay; conditions: scale relative to 1 μM camptothecin
T1 sequence (P11387 1-765): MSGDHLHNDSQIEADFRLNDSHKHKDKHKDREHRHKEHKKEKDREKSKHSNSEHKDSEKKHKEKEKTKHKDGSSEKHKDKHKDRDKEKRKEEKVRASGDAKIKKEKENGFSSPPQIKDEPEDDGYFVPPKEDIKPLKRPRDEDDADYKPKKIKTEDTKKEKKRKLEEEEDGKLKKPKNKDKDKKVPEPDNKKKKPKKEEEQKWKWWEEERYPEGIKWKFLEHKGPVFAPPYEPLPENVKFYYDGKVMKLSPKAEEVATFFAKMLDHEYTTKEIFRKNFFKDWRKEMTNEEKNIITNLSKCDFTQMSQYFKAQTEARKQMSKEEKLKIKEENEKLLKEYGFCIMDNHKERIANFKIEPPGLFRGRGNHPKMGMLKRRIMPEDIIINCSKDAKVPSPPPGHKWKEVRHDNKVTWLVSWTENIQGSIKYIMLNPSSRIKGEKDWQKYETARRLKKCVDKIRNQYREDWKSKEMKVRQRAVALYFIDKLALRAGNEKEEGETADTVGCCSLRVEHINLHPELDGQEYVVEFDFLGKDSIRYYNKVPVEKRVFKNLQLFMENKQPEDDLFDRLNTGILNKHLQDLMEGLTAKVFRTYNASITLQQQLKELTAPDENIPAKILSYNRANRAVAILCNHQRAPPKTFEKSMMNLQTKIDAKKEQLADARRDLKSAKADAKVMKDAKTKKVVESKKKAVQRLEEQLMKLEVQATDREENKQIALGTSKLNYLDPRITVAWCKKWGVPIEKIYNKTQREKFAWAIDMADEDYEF

[10] = system: UACC-62 (Melanoma); assay: NCI Developmental Therapeutics antiproliferative assay, UACC-62; type: cell-based, human
Experimental: as §2

[11] = system: HCT-116 (Colon); assay: NCI Developmental Therapeutics antiproliferative assay, HCT-116; type: cell-based, human
Experimental: as §2

[12] = system: cell lines derived from approximately 60 different human tumors; assay: NCI initial one-dose screening assay; type: cell-based; conditions: percentage of cell growth, one-dose assay at 10 μM
[13] = Homo sapiens, Table 3, NCI-60, unit inferred
[14] = Homo sapiens, MCF7, 50% growth inhibition, read-out: Cytotoxicity (GI50) Breast MCF7
[15] = Homo sapiens, DU-145, 50% growth inhibition, read-out: Cytotoxicity (GI50) Prostate DU-145
[16] = Homo sapiens, HOP-62, 50% growth inhibition, read-out: Cytotoxicity (GI50) Lung HOP-62
[17] = Homo sapiens, SN12C, 50% growth inhibition, read-out: Cytotoxicity (GI50) Renal SN12C
[18] = Homo sapiens, SF-539, 50% growth inhibition, read-out: Cytotoxicity (GI50) CNS SF-539
[19] = Homo sapiens, OVCAR-3, 50% growth inhibition, read-out: Cytotoxicity (GI50) Ovarian OVCAR-3
[20] = Homo sapiens, UACC-62, 50% growth inhibition, read-out: Cytotoxicity (GI50) Melanoma UACC-62

Tyrosyl-DNA phosphodiesterase 1 (TDP1), sequence (Q9NUW8 whole entry, species assumed): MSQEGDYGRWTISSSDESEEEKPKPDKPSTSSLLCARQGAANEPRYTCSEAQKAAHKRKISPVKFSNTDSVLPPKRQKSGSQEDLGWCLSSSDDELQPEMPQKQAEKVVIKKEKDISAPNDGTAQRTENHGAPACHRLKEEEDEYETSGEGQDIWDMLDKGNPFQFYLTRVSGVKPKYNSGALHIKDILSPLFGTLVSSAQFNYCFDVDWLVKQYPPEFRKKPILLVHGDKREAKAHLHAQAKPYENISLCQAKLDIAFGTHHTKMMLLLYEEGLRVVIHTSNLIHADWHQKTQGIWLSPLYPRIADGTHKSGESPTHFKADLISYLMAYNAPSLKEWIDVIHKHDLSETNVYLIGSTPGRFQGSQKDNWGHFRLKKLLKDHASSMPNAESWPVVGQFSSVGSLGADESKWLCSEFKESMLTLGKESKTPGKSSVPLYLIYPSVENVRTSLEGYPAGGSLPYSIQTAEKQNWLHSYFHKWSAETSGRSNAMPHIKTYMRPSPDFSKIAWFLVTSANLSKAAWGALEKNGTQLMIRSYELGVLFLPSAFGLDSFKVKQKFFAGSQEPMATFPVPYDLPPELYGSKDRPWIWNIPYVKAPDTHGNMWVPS

Structure (SMILES): O=C1c2cc3c(cc2-c2c1c1ccc(F)cc1c(=O)n2C[C@H](O)CO)OCO3
IC50 [1]: > 111 µM
GI50 [2, 13]: 0.105 µM

Structure (SMILES): O=C1c2cc3c(cc2-c2c1c1ccc(F)cc1c(=O)n2C[C@H](O)[C@@H](O)[C@H](O)CO)OCO3
IC50 [1]: > 111 µM
GI50 [2, 13]: 0.078 µM

Structure (SMILES): O=C1c2cc3c(cc2-c2c1c1ccc(Cl)cc1c(=O)n2C[C@H](O)CO)OCO3
IC50 [1]: > 111 µM
GI50 [2, 13]: 0.042 µM

Structure (SMILES): O=C1c2cc3c(cc2-c2c1c1ccc(Cl)cc1c(=O)n2C[C@H](O)[C@H](O)[C@H](O)CO)OCO3
IC50 [1]: > 111 µM

Structure (SMILES): O=C1c2cc3c(cc2-c2c1c1cc(F)c(F)cc1c(=O)n2C[C@H](O)CO)OCO3
IC50 [1]: > 111 µM
GI50 [2, 13]: 0.068 µM

Structure (SMILES): O=C1c2cc3c(cc2-c2c1c1cc(Cl)c(Cl)cc1c(=O)n2C[C@H](O)CO)OCO3
IC50 [1]: > 111 µM
GI50 [2, 13]: 0.013 µM

Structure (SMILES): NC[C@H](O)Cn1c2c(c3ccccc3c1=O)C(=O)c1ccccc1-2 [Compound 27d, (2′RS)-5,6-Dihydro-6-(3′-amino-2′-hydroxypropyl)-5,11-dioxo-11H-indeno[1,2-c]isoquinoline]
GI50 [11]: 0.263 µM
GI50 [3]: 0.198 µM
Growth Percent [12]: −23.49%
GI50 [4]: 0.13 µM
GI50 [5]: 0.276 µM
GI50 [6]: 0.206 µM
GI50 [7]: 0.344 µM
MGM (mean graph midpoint for growth inhibition) [2]: 0.348 ± 0.109 µM
GI50 [2]: 0.348 µM
GI50 [8]: 1.32 µM
GI50 [10]: 0.318 µM

Continued, in another order:

Top1 inhibitory activity [9]: +++ (+++, between 75% and 95% activity)
Structure (SMILES): O=C1c2ccccc2-c2c1c1ccccc1c(=O)n2C[C@H](O)CO [Compound 12a, (2′S)-5,6-Dihydro-6-[(2′,3′-dihydroxypropyl)]-5,11-dioxo-11H-indeno[1,2-c]isoquinoline]
GI50 [3, 14]: 4.9 µM
GI50 [4, 15]: 5.75 µM
GI50 [5, 16]: 5.01 µM
GI50 [6, 17]: 6.92 µM
GI50 [7, 18]: 7.41 µM
MGM (mean graph midpoint for growth inhibition) [2]: 8.71 µM
GI50 [8, 19]: 14.5 µM
GI50 [10, 20]: 5.37 µM

melting point: 200 to 205 °C
Structure (SMILES): O=C1c2ccccc2-c2c1c1ccccc1c(=O)n2C[C@@H](O)CO [Compound 12b, (2′R)-5,6-Dihydro-6-[(2′,3′-dihydroxypropyl)]-5,11-dioxo-11H-indeno[1,2-c]isoquinoline]
GI50 ([11]; Homo sapiens, HCT-116, 50% growth inhibition, read-out: Cytotoxicity (GI50) Colon HCT-116): 4.47 µM
GI50 [3, 14]: 3.04 µM
GI50 [4, 15]: 2.34 µM
GI50 [5, 16]: 3.79 µM
GI50 [6, 17]: 3.77 µM
GI50 [7, 18]: 5.72 µM
MGM (mean graph midpoint for growth inhibition) [2]: 6.24 ± 0.22 µM
GI50 [8, 19]: 16.1 µM
GI50 [10, 20]: 4.36 µM
